Several values for one entry are separate records, joined by “and”; a condition that tells them apart may be missing. Identical values can stand only once. Like-named read-outs stand apart in the source and are kept apart here.
Legend:
locust neuron nAChR = experiment: Whole-cell patch-clamp of locust mushroom body neurons, ACh-evoked currents; format: cell-based, Schistocerca gregaria; conditions: for Fold increase in potency vs PhTX-343, 1 s current / Fold increase in potency vs PhTX-343, peak current: IC50 PhTX-343 / IC50 analogue; for Cells in which potentiation of the ACh response was observed: co-application of 0.01 and 0.1 μM
Description: Neuronal cells were harvested through dissection of adult desert locusts (Shistocerca gregaria) purchased from livefoods.com. Following 10 min of cold anaesthesia at 4 °C, the locusts were submerged in 70% ethanol and their heads removed by decapitation with dissection scissors. The front of the head capsule was removed to expose the mushroom body of the brain, which was extracted, cut into small pieces, and placed into a 1 mL Eppendorf tube with 200 μL of Rinaldi’s saline (135 mM NaCl, 25 mM KCl, 0.4 mM NaHCO3, 0.5 mM glucose, and 5 mM HEPES adjusted to pH 7.2 with NaOH) containing 0.5 mg/mL dispase and 2 mg/mL collagenase. After 15 min incubation at 36.5 °C, neurons were centrifuged at 800× g for 1 min at room temperature to form a pellet. The supernatant was removed and replaced with 200 μL locust culture medium (5:4 − DMEM + 10% FCS + 2 mM Gln: Schneider’s insect medium + 10 IU/mL penicillin + 20 μg/mL streptomycin). A total of 200 μL of culture medium was gently pipette-mixed with the pellet to create a suspension of cells, which were spread over poly-L-lysine-coated glass coverslips (5 × 20 mm) in 35 mm Petri dishes containing 2 mL locust culture medium. Petri dishes were incubated overnight at 36.5 °C in a 5% CO2 atmosphere.
Experiments were conducted 16–24 h after neuron dissociation. Coverslips covered in locust neurons were placed into a patch-clamp perfusion chamber, and were then constantly perfused with locust saline solution (180 mM NaCl, 10 mM KCl, 2 mM CaCl2, 10 mM HEPES, and pH 7.2 with NaOH). Borosilicate glass patch pipettes (1B150F-4, World Precision Instruments, Hertfordshire, UK), pulled to ~5–10 MΩ with a P-97 Flaming/Brown micropipette puller (Sutter Instrument Co., Novato, CA, USA), were filled with caesium pipette solution (140 mM CsCl, 1 mM CaCl2, 1 mM MgCl2, 11 mM EGTA, and 5 mM HEPES, pH 7.2) and placed in a patch pipette holder mounted on the patch-clamp amplifier head stage. Patch-clamped cells were clamped at a holding potential (VH) of −75 mV. Whole-cell currents were monitored by using an Axopatch 200A patch-clamp amplifier (Molecular Devices, San Jose, CA, USA) and recorded with WinWCP V4.5.7 software (Dr John Dempster, Institute of Pharmacy & Biomedical Sciences, University of Strathclyde, Glasgow, UK). Test compounds were focally applied to cells as 1 s pulses using a DAD-12 superfusion system (ALA Scientific Instruments, Farmingdale, NY, USA). Between each application of test compounds, clamped cells were washed for 1 min with locust saline. […]
A total of 100 μM acetylcholine (ACh) was applied to cells twice prior to (control) and once after the co-application of 100 μM ACh and PhTX analogue. Peak current and current after 1 s of application were measured using WinWCP, and then the percentage of control response values were generated by normalising responses to ACh + PhTX co-application to the ACh-only control response. GraphPad Prism 9 (GraphPad Software, San Diego, CA, USA) was used for data analysis, graph plotting, curve fitting, and statistical analysis. To estimate the ACh EC50, concentration–response data were fit by the Hill equation:(1) % maximum response=100/(1+10^(LogEC50−X)S) where X is the log of the ACh concentration and S is the Hill slope. Concentration–inhibition curves were generated by plotting the mean and standard error of the normalised current measurements against log antagonist concentration, and then IC50 values were estimated by fitting a non-linear regression curve by using the equation:(2) % control response=100/(1+10^(X−LogIC50)S) where X is the log of the concentration of the PhTX analogue and S is the Hill slope.

rat α4β2 nAChRs = conditions: rat subtype α4β2; cited from earlier work
rat α3β4 nAChRs = conditions: rat subtype α3β4; cited from earlier work
human muscle-type nAChRs = test system: human muscle-type nAChRs; set-up: method as in PMID 16892364; conditions: cited from earlier work
[1] = inhibition of 100 μM ACh-evoked current after 1 s of activation, VH −75 mV, read-out: IC50 (95% CI), 1 s Current
[2] = inhibition of 100 μM ACh-evoked peak current, VH −75 mV, read-out: IC50 (95% CI), Peak Current
[3] = at both 0.01 and 0.1 μM, cells showing potentiation, 100 μM ACh

COc1cc2c3cc1Oc1cc(ccc1O)C[C@@H]1c4c(cc(OC)c(O)c4Oc4ccc(cc4)C[C@@H]3N(C)CC2)CC[N+]1(C)C [d-tubocurarine, reference compound]
IC50 (locust neuron nAChR; co-applied 0.1 to 100 μM with 100 μM ACh, n = 11, read-out: IC50 for inhibition of 100 μM ACh current): 2730 nM
Inhibition at the highest concentration (locust neuron nAChR; highest concentration (100 μM) co-applied with 100 μM ACh): complete inhibition

CN1CCC[C@H]1c1cccnc1 [nicotine, reference compound]
Whole-cell current response compared with 100 μM ACh (locust neuron nAChR; 100 μM, same neuron): smaller than that seen for ACh

CCCC(=O)N[C@@H](CC1CCCCC1)C(=O)NCCCNCCCCNCCCN [Cha-PhTX-343]
IC50 (rat α4β2 nAChRs): low nanomolar range
Potentiation, % of the ACh control response, peak and 1 s current similar (locust neuron nAChR; 0.01 μM, cells showing potentiation, 100 μM ACh): about 145%
Potentiation, % of the ACh control response, peak and 1 s current similar (locust neuron nAChR; 0.1 μM, cells showing potentiation, 100 μM ACh): ~125%
Fold increase in potency vs PhTX-343, 1 s current (locust neuron nAChR): 1.8 fold
Fold increase in potency vs PhTX-343, peak current (locust neuron nAChR): 23 fold
Cells in which potentiation of the ACh response was observed (locust neuron nAChR): 12 out of 22
IC50 (locust neuron nAChR; [1]): 440 nM
IC50 (locust neuron nAChR; [2]): 1750 nM
IC50 (rat α3β4 nAChRs): low nanomolar range
Times more potent than PhTX-12 (human muscle-type nAChRs): > 10 times
Times more potent than PhTX-343 (human muscle-type nAChRs): > 100 times

CCCC(=O)N[C@@H](CC1CCCCC1)C(=O)NCCCCCCCCCCCCN [Cha-PhTX-12]
Fold increase in potency vs PhTX-343, 1 s current (locust neuron nAChR): 471 fold
Fold increase in potency vs PhTX-343, peak current (locust neuron nAChR): > 5000 fold
IC50 (locust neuron nAChR; at −75 mV (abstract; 1 s current), read-out: IC50): 1.71 nM
IC50 (locust neuron nAChR; [1]): 1.7 nM
IC50 (locust neuron nAChR; [2]): 7.5 nM

CCCC(=O)N[C@@H](Cc1ccc(O)cc1)C(=O)NCCCNCCCCNCCCN [PhTX-343, philanthotoxin-343, reference compound]
Mean potentiation, % of the ACh control response, 1 s current (locust neuron nAChR; [3]): ~300%
Mean potentiation, % of the ACh control response, peak current (locust neuron nAChR; [3]): around 200%
Cells in which potentiation of the ACh response was observed (locust neuron nAChR): 8 out of 23
IC50 (locust neuron nAChR; [1]): 800 nM
IC50 (locust neuron nAChR; [2]): 39800 nM

CCCC(=O)N[C@@H](Cc1ccc(O)cc1)C(=O)NCCCCCCCCCCCCN [PhTX-12]
Fold increase in potency vs PhTX-343, 1 s current (locust neuron nAChR): 6.2 fold and ~ 6 fold
Fold increase in potency vs PhTX-343, peak current (locust neuron nAChR): 34 fold
IC50 (locust neuron nAChR; [1]): 130 nM
IC50 (locust neuron nAChR; [2]): 1170 nM

CC(=O)OCC[N+](C)(C)C [ACh, acetylcholine]
EC50 (locust neuron nAChR; peak response, n = 11, read-out: EC50 of ACh-evoked whole-cell current): 20300 nM

— article PMC8622278, “The Effects of Structural Alterations in the Polyamine and Amino Acid Moieties of Philanthotoxins on Nicotinic Acetylcholine Receptor Inhibition in the Locust, Schistocerca gregaria” (Molecules, 2021)
